Data from patent publication US6596734B1, “Tetrahydroisoquinoline compounds for use as β3-adrenoreceptor agonists” (Molecular Design International, Inc., priority 2001, dated 2003).
Where a name gives a salt, the structure may show the parent alone.

Assays:
human β3-adrenoreceptor = target: T1, human β3-adrenoreceptor (Homo sapiens, UniProt P13945); assay: cAMP radioimmunoassay in CHO cells expressing human β3-adrenoreceptor; assay type: cell-based; conditions: for EC50: concentration giving 50% of the drug's maximum cAMP response, na = not active at highest concentration used, read-out: h-β3 cAMP EC50; for Emax: maximal response relative to standard reference agonist (isoproterenol = 100%), na = not active, read-out: h-β3 cAMP Max %
T1 construct: expressed in transfected cells; host or cells: CHO cells
Procedure: (§1) Chinese Hamster Ovary (CHO) cells expressing either human β1-, β2-, or β3-adrenoreceptor subtypes were used. Varying concentrations of each compound were added to the incubated cells and the cyclic AMP (cAMP) generated within the cells was extracted, and determined using a radioimmunoassay. Effective concentration-50 (EC-50) values were measured as the concentration (in nanomolar) of each drug that gave 50% of its maximum cAMP response. The maximal response (Max %) of each tested drug is expressed as a ratio of the drug response to that of a standard reference agonist (e.g., isoproterenol (Max %=100%)). If a compound has no activity for increasing cAMP at the highest concentration used, it is designated as “not active” or “na” in Table I below, which summarizes the testing results. See Konkar et al., Journal of Pharmacology and Experimental Therapeutics 291:875-883 (1999).

human β2-adrenoreceptor = target: T2, human β2-adrenoreceptor (Homo sapiens, UniProt P07550); assay: cAMP radioimmunoassay in CHO cells expressing human β2-adrenoreceptor; assay type: cell-based; conditions: maximal response relative to standard reference agonist (isoproterenol = 100%), na = not active, read-out: h-β2 cAMP Max %
T2 construct: expressed in transfected cells; host or cells: CHO cells
Procedure: as §1

human β1-adrenoreceptor = target: T3, human β1-adrenoreceptor (Homo sapiens, UniProt P08588); assay: cAMP radioimmunoassay in CHO cells expressing human β1-adrenoreceptor; assay type: cell-based; conditions: maximal response relative to standard reference agonist (isoproterenol = 100%), na = not active, read-out: h-β1 cAMP Max %
T3 construct: expressed in transfected cells; host or cells: CHO cells
Procedure: as §1

T2 sequence (P07550 whole entry): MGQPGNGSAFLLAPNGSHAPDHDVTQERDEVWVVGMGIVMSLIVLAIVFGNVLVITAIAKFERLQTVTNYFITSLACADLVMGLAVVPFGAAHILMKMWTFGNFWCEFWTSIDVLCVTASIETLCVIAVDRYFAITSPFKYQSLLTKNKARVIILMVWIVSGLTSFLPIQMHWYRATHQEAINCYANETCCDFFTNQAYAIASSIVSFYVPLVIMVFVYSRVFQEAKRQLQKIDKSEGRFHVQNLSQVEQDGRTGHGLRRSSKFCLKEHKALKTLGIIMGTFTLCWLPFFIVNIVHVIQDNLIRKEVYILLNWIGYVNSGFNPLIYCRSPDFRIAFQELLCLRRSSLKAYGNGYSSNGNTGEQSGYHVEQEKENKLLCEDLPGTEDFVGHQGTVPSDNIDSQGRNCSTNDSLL
T3 sequence (P08588 whole entry): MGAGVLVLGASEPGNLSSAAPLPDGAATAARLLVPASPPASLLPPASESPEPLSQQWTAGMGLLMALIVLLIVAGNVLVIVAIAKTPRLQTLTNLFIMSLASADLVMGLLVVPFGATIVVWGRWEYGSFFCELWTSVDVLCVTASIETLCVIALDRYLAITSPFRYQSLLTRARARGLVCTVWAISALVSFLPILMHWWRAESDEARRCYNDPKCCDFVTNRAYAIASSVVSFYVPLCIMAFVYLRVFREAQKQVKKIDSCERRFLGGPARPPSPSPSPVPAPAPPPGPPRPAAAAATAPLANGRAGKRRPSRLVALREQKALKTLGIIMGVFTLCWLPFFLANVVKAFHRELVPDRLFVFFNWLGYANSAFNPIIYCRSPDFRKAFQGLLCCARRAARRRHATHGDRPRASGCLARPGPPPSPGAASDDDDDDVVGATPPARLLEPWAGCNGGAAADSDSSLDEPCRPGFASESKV
T1 sequence (P13945 whole entry): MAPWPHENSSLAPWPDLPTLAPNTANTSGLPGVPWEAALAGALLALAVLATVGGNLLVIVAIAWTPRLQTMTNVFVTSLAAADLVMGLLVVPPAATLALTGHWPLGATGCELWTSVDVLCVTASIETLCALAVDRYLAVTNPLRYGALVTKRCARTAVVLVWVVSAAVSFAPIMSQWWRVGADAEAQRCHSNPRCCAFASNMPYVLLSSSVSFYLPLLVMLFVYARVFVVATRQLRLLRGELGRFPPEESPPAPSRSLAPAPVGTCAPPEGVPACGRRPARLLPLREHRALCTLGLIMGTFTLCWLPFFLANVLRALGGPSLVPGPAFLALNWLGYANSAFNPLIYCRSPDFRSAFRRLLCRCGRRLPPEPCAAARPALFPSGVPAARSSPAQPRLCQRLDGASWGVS

| Compound | EC50 (human β3-adrenoreceptor) | Emax (human β3-adrenoreceptor) | Emax (human β2-adrenoreceptor) | Emax (human β1-adrenoreceptor) | melting point |
| --- | --- | --- | --- | --- | --- |
| COc1c(Br)cc(CC2NCCc3cc(O)c(NS(=O)(=O)c4ccc(F)cc4)cc32)cc1Br (centres unmarked) | 5.22 nM | 90.4% | 13.5% | 8.6% |  |
| COc1c(Br)cc(CC2NCCc3cc(O)c(NS(=O)(=O)c4ccccc4)cc32)cc1Br (centres unmarked) | 35.3 nM | 88.2% | 21.4% | 13.1% |  |
| COc1c(Br)cc(CC2c3cc(NS(C)(=O)=O)c(O)cc3CCN2C)cc1Br (centres unmarked) |  | 39.3% | 24.1% | 16.2% |  |
| CCOC(=O)Nc1cc2c(cc1NS(C)(=O)=O)CCNC2Cc1cc(Br)c(OC)c(Br)c1 (centres unmarked) |  | 8.7% | 17.2% | 11% |  |
| CS(=O)(=O)Nc1cc2c(cc1O)CCNC2Cc1ccc(F)c(F)c1 (centres unmarked) | 24.4 nM | 78.3% |  |  |  |
| COc1c(Br)cc(CC2NCCc3cc(O)c(NS(=O)(=O)Cc4ccccc4)cc32)cc1Br (centres unmarked) | 20.9 nM | 92.2% |  |  |  |
| COc1ccc(S(=O)(=O)Nc2cc3c(cc2O)CCNC3Cc2cc(Br)c(OC)c(Br)c2)cc1 (centres unmarked) | 8.09 nM | 88.3% |  |  |  |
| COc1c(Br)cc(CC2NCCc3cc(O)c(NS(=O)(=O)c4ccc(C)cc4)cc32)cc1Br (centres unmarked) | 8.46 nM | 97.6% | 8% | 18.1% |  |
| COc1c(Br)cc(CC2NCCc3cc(O)c(N(S(=O)(=O)c4ccc(F)cc4)S(=O)(=O)c4ccc(F)cc4)cc32)cc1Br (centres unmarked) |  | 8.7% | 5.8% | 12.1% |  |
| CCS(=O)(=O)Nc1cc2c(cc1O)CCNC2Cc1cc(Br)c(OC)c(Br)c1 (centres unmarked) | 1.51 nM | 102% |  | 8.4% |  |
| COc1c(Br)cc(CC2NCCc3cc(O)c(NS(=O)(=O)c4ccc(C(F)(F)F)cc4)cc32)cc1Br (centres unmarked) | 29.2 nM | 83.3% | 16.6% | 13% |  |
| COc1c(Br)cc(CC2NCCc3cc(O)c(NS(=O)(=O)c4ccc(OC(F)(F)F)cc4)cc32)cc1Br (centres unmarked) | 80.3 nM | 65.7% |  |  |  |
| COc1c(I)cc(CC2NCCc3cc(O)c(NS(=O)(=O)c4ccc(C)cc4)cc32)cc1I (centres unmarked) | 2.9 nM | 91% | 8% | 5% |  |
| COc1c(Br)cc(CC2NCCc3cc(O)c(NS(=O)(=O)/C=C/c4ccccc4)cc32)cc1Br (centres unmarked) | 23.1 nM | 96.6% |  |  |  |
| COc1ccc(S(=O)(=O)Nc2cc3c(cc2O)CCNC3Cc2cc(Br)c(OC)c(Br)c2)cc1 (centres unmarked) (as salt: hydrochloride) [Example 4, N-[1-(3,5-dibromo-4-methoxy-benzyl)-6-hydroxy-1,2,3,4-tetrahydro-isoquinolin-7-yl]-4-methoxy-benzenesulfonamide hydrochloride] |  |  |  |  | 226 to 228 °C (dec.) |
| COc1c(I)cc(CC2NCCc3cc(O)c(NS(C)(=O)=O)cc32)cc1I (centres unmarked) | 3 nM | 98% | 5% | 5% |  |
| COc1ccc(CC2NCCc3cc(O)c(NS(C)(=O)=O)cc32)cc1 (centres unmarked) |  | 24% |  |  |  |
| CS(=O)(=O)Nc1cc2c(cc1O)CCNC2Cc1ccc(Cl)c(Cl)c1 (centres unmarked) | 9.91 nM | 92% |  |  |  |
| CS(=O)(=O)Nc1cc2c(cc1O)CCNC2Cc1cc(F)cc(F)c1 (centres unmarked) | 38.8 nM | 66.6% |  |  |  |
| COc1ccc(CC2NCCc3cc(O)c(NS(C)(=O)=O)cc32)cc1OC (centres unmarked) | 118 nM | 76.9% | 15.4% | 10.2% |  |
| CS(=O)(=O)Nc1cc2c(cc1N)CCNC2Cc1ccc(Cl)c(Cl)c1 (centres unmarked) |  | 2.24% | 10.8% | 12.6% |  |
